Reference: ChEMBL document CHEMBL2074058, “Regulation by dexamethasone of P-glycoprotein expression in cultured rat hepatocytes” (FEBS Lett, 1993)

Experiments:
[1] = target: Multidrug resistance protein 1a (Rattus norvegicus) (UniProt Q6PSM0); test: TP_TRANSPORTER: Western blot, primary hepatocytes; format: functional, cell-based; conditions: Hepatocyte
[2] = target: Multidrug resistance protein 1a (Rattus norvegicus) (UniProt Q6PSM0); test: TP_TRANSPORTER: Northern blot from primary hepatocytes; format: functional, cell-based; conditions: Hepatocyte

Sequence of Multidrug resistance protein 1a (Rattus norvegicus) (Q6PSM0 as listed by the source): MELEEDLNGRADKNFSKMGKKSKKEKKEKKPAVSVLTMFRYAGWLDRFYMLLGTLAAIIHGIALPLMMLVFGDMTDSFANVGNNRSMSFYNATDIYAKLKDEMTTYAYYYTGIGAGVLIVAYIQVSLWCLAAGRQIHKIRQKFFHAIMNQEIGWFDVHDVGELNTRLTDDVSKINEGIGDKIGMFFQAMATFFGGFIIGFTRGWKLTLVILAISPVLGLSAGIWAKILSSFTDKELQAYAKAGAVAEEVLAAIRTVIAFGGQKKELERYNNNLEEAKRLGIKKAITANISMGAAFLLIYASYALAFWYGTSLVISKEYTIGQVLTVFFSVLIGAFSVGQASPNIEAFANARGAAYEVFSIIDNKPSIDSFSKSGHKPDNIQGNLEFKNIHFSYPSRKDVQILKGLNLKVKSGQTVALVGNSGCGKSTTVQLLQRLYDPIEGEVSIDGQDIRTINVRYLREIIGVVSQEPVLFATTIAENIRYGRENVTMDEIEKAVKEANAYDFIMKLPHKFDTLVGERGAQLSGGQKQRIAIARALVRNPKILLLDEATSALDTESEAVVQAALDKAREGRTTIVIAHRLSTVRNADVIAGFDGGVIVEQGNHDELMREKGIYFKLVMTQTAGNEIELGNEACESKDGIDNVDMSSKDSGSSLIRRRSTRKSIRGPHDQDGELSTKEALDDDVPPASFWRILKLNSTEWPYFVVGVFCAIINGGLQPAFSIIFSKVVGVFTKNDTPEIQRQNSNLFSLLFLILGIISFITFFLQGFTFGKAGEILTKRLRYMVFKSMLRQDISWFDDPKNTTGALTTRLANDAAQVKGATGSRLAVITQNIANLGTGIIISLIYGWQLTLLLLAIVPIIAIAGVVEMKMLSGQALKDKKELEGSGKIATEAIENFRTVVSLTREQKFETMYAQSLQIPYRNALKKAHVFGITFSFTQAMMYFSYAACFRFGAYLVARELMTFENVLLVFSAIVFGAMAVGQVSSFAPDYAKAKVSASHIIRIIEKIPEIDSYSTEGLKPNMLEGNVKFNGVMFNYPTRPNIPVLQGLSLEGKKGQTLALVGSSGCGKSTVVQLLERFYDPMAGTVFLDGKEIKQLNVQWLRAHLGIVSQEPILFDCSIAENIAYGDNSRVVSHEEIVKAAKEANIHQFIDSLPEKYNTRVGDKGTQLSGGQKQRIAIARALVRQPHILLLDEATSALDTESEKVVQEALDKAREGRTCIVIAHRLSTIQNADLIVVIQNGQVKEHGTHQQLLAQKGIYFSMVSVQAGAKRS

In the case of `C[C@@H]1C[C@H]2[C@@H]3CCC4=CC(=O)C=C[C@]4(C)[C@@]3(F)[C@@H](O)C[C@]2(C)[C@@]1(O)C(=O)CO`, the Activity [1] is reported as “inducer [Decrease]” and the Activity [2] is reported as “inducer [Decrease]”.
